Laboratory results reported in PubChem BioAssay AID608 (Sanford-Burnham Center for Chemical Genomics, 2007).
The source made the active and inactive calls. No rule for the calls is given here.

These compounds were tested against Peptidyl-prolyl cis-trans isomerase FKBP1A (Homo sapiens) (UniProt P62942) (assay: FKBP12 binders, biophysical, NMR detection (AID 608)). Conditions: NMR binding, purified FKBP12.
Peptidyl-prolyl cis-trans isomerase FKBP1A (Homo sapiens), sequence (P62942 whole entry, looked up): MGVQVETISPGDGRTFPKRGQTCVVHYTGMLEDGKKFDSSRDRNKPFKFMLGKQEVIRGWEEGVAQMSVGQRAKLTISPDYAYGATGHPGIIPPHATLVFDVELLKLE

Structure (SMILES) | Kd
COC1=C(OC)C(=O)C(C/C=C(\C)CC/C=C(\C)CC/C=C(\C)CC/C=C(/C)CC/C=C(\C)CC/C=C(\C)CC/C=C(\C)CC/C=C(\C)CC/C=C(\C)CCC=C(C)C)=C(C)C1=O | > 4 mM (inactive)
Cc1cc(C(=O)Nc2ccccn2)no1 | > 4 mM (inactive)
CC(=O)c1ccc(N2C(=O)C(C(C)C)NC2=S)cc1 (stereo not given) | > 4 mM (inactive)
NC(=O)c1ccc(SCC(=O)O)c([N+](=O)[O-])c1 | > 4 mM (inactive)
CCOC(=O)c1csc(C)n1 | > 4 mM (inactive)
C[C@]12CCC3C(CC[C@H]4C[C@@H](O)CC[C@]34C)C1CCC2=O (stereo not given in full) | > 4 mM (inactive)
Cc1c(C)[n+]([O-])c(-c2ccc([N+](=O)[O-])cc2)n1O | > 4 mM (inactive)
CC(=O)Nc1ccc(CN2CCOCC2)cc1 | > 4 mM (inactive)
CC(=O)Nc1cc(O)cc(O)c1 | > 4 mM (inactive)
CC(C)(C)c1ccc(SCC(N)=O)cc1 | 0.455 mM
Cc1noc(C)c1CSc1nc2ccccc2[nH]1 | 0.157 mM
COc1ccc(C(=O)NC2=NCCS2)cc1OC | > 4 mM (inactive)
Cc1cc(=O)[nH]c2ccccc12 | > 4 mM (inactive)
CC(=O)N1CCN(C2CCSC2)CC1 (stereo not given) | > 4 mM (inactive)
Cc1c(C(=O)Nc2ccccc2)sc(N)c1C(N)=O | > 4 mM (inactive)
O=C(Nc1ccc(-c2nnco2)cc1)c1ccccc1 | > 4 mM (inactive)
O=c1c2ccccc2nc2n1CCCCN2 | > 4 mM (inactive)
CC(C)c1c(O)ccc2c1CCC1C(C)(C)CCC[C@]21C (stereo not given in full) | > 4 mM (inactive)
O=C(NCC1CCCCC1)c1ccco1 | > 4 mM (inactive)
NC(=O)c1ccsc1NC(=O)C1=COCCO1 | > 4 mM (inactive)
CN1C(=O)N(C)C2NC(=O)NC21 (stereo not given) | > 4 mM (inactive)
O=C1CSC(=Nc2ccc(Cl)cc2)N1 | > 4 mM (inactive)
OCc1ccc2nsnc2c1 | > 4 mM (inactive)
CCn1nnc(NC(=O)c2cc3ccccc3o2)n1 | > 4 mM (inactive)

Structure (SMILES) | Kd
CCc1noc(C)c1C(=O)N1CCCC1 | > 4 mM (inactive)
CN1C(=O)C2CC=C(Cl)CC2C1=O (stereo not given) | > 4 mM (inactive)
CCCn1cnn2c(=O)cc(C)nc12 | > 4 mM (inactive)
Nc1cc(=O)[nH]c(=O)n1Cc1ccco1 | > 4 mM (inactive)
NC(N)=NCCCCN=C(N)N | > 4 mM (inactive)
S=c1oc(-c2ccncc2)nn1CCc1ccncc1 | inactive
CSc1nsc(SCc2cnc(C)nc2N)n1 | > 4 mM (inactive)
O=C(O)Cn1c(C(F)(F)F)nc2ccccc21 | > 4 mM (inactive)
CCn1cnc2cc(NCc3ccncc3)ccc21 | > 4 mM (inactive)
Cc1nnc(NCCCO)[nH]c1=O | > 4 mM (inactive)
Cc1noc(C)c1C(=O)Nc1ccc2c(c1)CCC2 | > 4 mM (inactive)
O=C1CSC(=O)N1CN1CCOCC1 | > 4 mM (inactive)
O=C1C2C3C=CC(C3)C2C(=O)N1CCO (stereo not given) | > 4 mM (inactive)
CCn1cnc(C(=O)NC)c1C(=O)NC | > 4 mM (inactive)
CCCCCCCCCCCCCCC(C(=O)OC)C(O)(CC(=O)OC)C(=O)OC (stereo not given) | > 4 mM (inactive)
O=C(Nc1nc2ccccc2s1)c1ccc(=O)[nH]n1 | > 4 mM (inactive)
CC1CCC2(OC1)OC1CC3C4CC[C@H]5C[C@@H](O)CC[C@]5(C)C4CC(=O)[C@]3(C)C1C2C (stereo not given in full) | > 4 mM (inactive)
O=C(c1nc2ccccc2s1)N1CCSCC1 | > 4 mM (inactive)
O=C(Nc1nccs1)c1ccc(=O)[nH]n1 | > 4 mM (inactive)
Cc1noc(C)c1C(=O)Nc1sc(C)c(C)c1C#N | > 4 mM (inactive)
O=C(O)C1CC(=O)N(CCc2ccc(Cl)cc2)C1 (stereo not given) | > 4 mM (inactive)
Cc1oc(-c2ccccc2)cc1C(=O)O | > 4 mM (inactive)
Cc1nc2ccccc2c(=O)n1NC(=O)C1CCCCC1 | > 4 mM (inactive)
O=C(O)CCNc1n[nH]c(=O)[nH]c1=O | > 4 mM (inactive)

Structure (SMILES) | Kd
Cc1onc(-c2c(Cl)cccc2Cl)c1C(N)=O | > 4 mM (inactive)
COc1ccccc1C(=O)NC1CCN(C)CC1 | > 4 mM (inactive)
Cc1ccc(SCC(=O)N2CC(C)OC(C)C2)cc1 (stereo not given) | inactive
CC1(C)Oc2ccc3ccc(=O)oc3c2CC1O (stereo not given) | > 4 mM (inactive)
CC(=O)c1ccc(-n2ccnc2)cc1 | > 4 mM (inactive)
CNC(=O)c1cc(C)c(-c2ccccc2)s1 | > 4 mM (inactive)
OC[C@@H]1CCCN2CCCC[C@H]12 | > 4 mM (inactive)
Cc1ccc(S(=O)(=O)CC(=O)N2CCCC2)cc1 | > 4 mM (inactive)
S=c1ccc(N2CCCCC2)n[nH]1 | > 4 mM (inactive)
c1ccc(CCNc2ncnc3nc[nH]c23)cc1 | > 4 mM (inactive)
NCc1ccc2c(c1)OCCO2 | > 4 mM (inactive)
CC1(C)CC[C@]2(C(=O)O)CC[C@]3(C)C(=CCC4[C@@]5(C)CC[C@H](O)[C@@](C)(CO)C5CC[C@]43C)C2C1 (stereo not given in full) | > 4 mM (inactive)
C=C1CCC2C(CC2(C)C)C(=O)CCC1O (stereo not given) | > 4 mM (inactive)
CC1(C)CCC(C)(C)c2cc(C(=O)O)ccc21 | > 4 mM (inactive)
OCc1ccc2ncccc2c1 | > 4 mM (inactive)
COc1ccccc1NC(=O)c1ccc(Br)o1 | > 4 mM (inactive)
Cc1cc(C)c(C)c(OCC(=O)N2CCOCC2)c1 | inactive
COc1ccc2nc(N)sc2c1 | > 4 mM (inactive)
CC1=C(CCC(=O)O)c2cc3nc(cc4[nH]c(cc5[nH]c(cc1n2)c(C)c5C(C)O)c(C)c4C(C)O)C(C)=C3CCC(=O)O (stereo not given) | > 4 mM (inactive)
O=c1c2ccccc2oc2ccc(O)cc12 | > 4 mM (inactive)
CN=C(C)c1c(O)n(C)c(=O)n(C)c1=O | > 4 mM (inactive)
C=C1C2CC[C@H]3[C@]4(C)C[C@H](OC5OC(CO)C(OS(=O)(=O)O)C(OS(=O)(=O)O)C5OC(=O)CC(C)C)C[C@@H](C(=O)O)[C@H]4CC[C@]3(C2)[C@H]1O (stereo not given in full) | > 4 mM (inactive)
Cc1nc2ccccc2c(=O)n1/N=C/c1ccncc1 | > 4 mM (inactive)
CC1=NN2C(=N)/C(=C\c3cccs3)C(=O)N=C2S1 | > 4 mM (inactive)

Structure (SMILES) | Kd
Cc1sc2nc(NCCO)[nH]c(=O)c2c1C | > 4 mM (inactive)
Cc1nc(NC(=O)c2cccnc2)ccc1Br | > 4 mM (inactive)
CC1(C)Cc2cccc(C(=O)O)c2O1 | > 4 mM (inactive)
CCCNC(CC(=O)Nc1cccnc1)C(=O)O (stereo not given) | > 4 mM (inactive)
O=C(NC(=S)NC1CCS(=O)(=O)C1)c1ccccc1 (stereo not given) | > 4 mM (inactive)
Cc1cc(O)cc(=O)n1CCCC(=O)O | > 4 mM (inactive)
O=c1cc(CO)oc(CN2CCCCC2)c1O | > 4 mM (inactive)
Cc1cc(C)n(C/C=C/Cn2nc(C)cc2C)n1 | > 4 mM (inactive)
CCCCCC(=O)Cc1cc(O)cc(O)c1C(=O)Oc1cc(CC(=O)CCCCC)c(C(=O)O)c(OC)c1 | > 4 mM (inactive)
Cc1cc(O)c2c(c1)C(=O)c1cccc(O)c1C2=O | > 4 mM (inactive)
O=C(O[C@@H]1Cc2c(O)cc(O)cc2O[C@@H]1c1cc(O)c(O)c(O)c1)c1cc(O)c(O)c(O)c1 | > 4 mM (inactive)
NC(=O)c1ccsc1N | > 4 mM (inactive)
C/C(=N\NC(N)=S)C(=O)O | > 4 mM (inactive)
CNc1ccccc1C(=O)O | > 4 mM (inactive)
COc1cc2ccc(=O)oc2c(OC)c1OC | > 4 mM (inactive)
COc1cc2c(cc1OC)Cc1cc(OC)c(OC)cc1Cc1cc(OC)c(OC)cc1C2 | > 4 mM (inactive)
CN1CCN(c2cc(=O)n(C)c(=O)[nH]2)CC1 | > 4 mM (inactive)
Cc1n[nH]c(C)c1CN | > 4 mM (inactive)
CC(=O)NC(=S)Nc1cccc(C(=O)O)c1C | > 4 mM (inactive)
O=C(COc1ccc(F)cc1)N1CCOCC1 | inactive
C[C@@H]1CC[C@@]2(OC1)OC1CC3C4CC=C5C[C@@H](O)CC[C@]5(C)C4CC[C@]3(C)C1[C@@H]2C (stereo not given in full) | > 4 mM (inactive)
CCCCC(Nc1n[nH]c(=O)[nH]c1=O)C(=O)O (stereo not given) | > 4 mM (inactive)
Cc1cc(SCC(=O)Nc2nccs2)nc(=O)[nH]1 | > 4 mM (inactive)
O=C1CS/C(=N/S(=O)(=O)c2ccccc2)N1 | > 4 mM (inactive)

Structure (SMILES) | Kd
CC1=CC(=O)NC2C=CC=CC12 (stereo not given) | > 4 mM (inactive)
OC/C=C/c1ccc(O)c(O)c1 | > 4 mM (inactive)
c1ccc(Cc2nn3c(-c4ccncc4)nnc3s2)cc1 | > 4 mM (inactive)
N#Cc1cnc(N2CCCCC2)nc1N | > 4 mM (inactive)
CCCCCCCCCCCCCCCCCCOCC(O)CO (stereo not given) | > 4 mM (inactive)
COc1ccc(C(=O)O)cc1OC | > 4 mM (inactive)
Fc1ccc(F)c(CN2CCN(c3ncccn3)CC2)c1 | > 4 mM (inactive)
O=c1c(-c2ccc(O)cc2)coc2cc(O)ccc12 | > 4 mM (inactive)
O=c1c(O)cccc2cc(O)c(O)c(O)c12 | > 4 mM (inactive)
OCc1snnc1-c1ccccc1 | > 4 mM (inactive)
COCCn1c(SC)nc2c1c(=O)[nH]c(=O)n2C | > 4 mM (inactive)
O=C(c1cc2ccccc2o1)N1CCOCC1 | inactive
Cc1[nH]ccc2c1[nH]c1cc(=O)ccc12 | > 4 mM (inactive)
C=C1CSc2nc(=O)c3c(C)c(C)sc3n21 | > 4 mM (inactive)
O=C1C(=O)N(CNc2ncccn2)c2ccccc21 | > 4 mM (inactive)
CNC(=O)C(=O)Nc1cccc(Cl)c1 | > 4 mM (inactive)
O=c1c(-c2cccs2)[n+]([O-])c2ccccc2n1O | > 4 mM (inactive)
CC(C)c1ccccc1OCC(=O)N1CCOCC1 | > 4 mM (inactive)
CCCNC(=O)CSc1ncccc1C(=O)O | > 4 mM (inactive)
OC12CC3CC(CC(C3)C1)C2 | > 4 mM (inactive)
COc1ccc(-c2coc3cc(O)ccc3c2=O)c(O)c1O | > 4 mM (inactive)
COc1cnn(Cc2ccccc2)c(=O)c1Cl | > 4 mM (inactive)
O=C(O)C1CC(=O)N(Cc2cccs2)C1 (stereo not given) | > 4 mM (inactive)
NC12CC3CC(C1)CC(CC(=O)O)(C3)C2 | > 4 mM (inactive)
